Measured values reported in patent publication US5202314A, “10-thioethyl-steroids” (Roussel Uclaf, priority 1991, dated 1993).

Target: T1, aromatase (Homo sapiens, UniProt P11511)
T1 construct: The supernatant was then subjected to an ultracentrifugation stage (90 minutes, 105,000 g) to obtain the microsomal regulus; from tissue; host or cells: human placenta, microsomal fraction
T1 sequence (P11511 1-503): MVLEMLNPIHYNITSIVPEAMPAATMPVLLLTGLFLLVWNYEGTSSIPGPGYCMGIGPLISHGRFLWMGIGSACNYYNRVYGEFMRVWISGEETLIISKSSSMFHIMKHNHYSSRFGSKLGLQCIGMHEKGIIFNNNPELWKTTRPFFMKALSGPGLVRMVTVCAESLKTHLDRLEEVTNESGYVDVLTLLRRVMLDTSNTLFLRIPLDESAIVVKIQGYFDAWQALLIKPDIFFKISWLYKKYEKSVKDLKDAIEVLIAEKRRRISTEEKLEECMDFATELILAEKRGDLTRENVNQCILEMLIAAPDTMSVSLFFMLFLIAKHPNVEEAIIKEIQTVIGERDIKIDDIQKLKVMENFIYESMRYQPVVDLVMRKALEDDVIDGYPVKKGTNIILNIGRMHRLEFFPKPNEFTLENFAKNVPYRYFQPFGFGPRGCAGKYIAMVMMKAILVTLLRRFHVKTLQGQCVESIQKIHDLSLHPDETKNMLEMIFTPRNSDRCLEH
Experiment: Inhibition of aromatase in human placental microsomes (tritiated water release from 1β-2β-3H-Androstenedione)
Type: biochemical
Conditions: 25 micrograms of proteins per test, substrate Androstenedione 500 nM, NADPH, 37° C., 10 minutes, read-out: IC50 (concentration of inhibitor necessary to decrease by 50% the enzymatic activity)
Method: Inhibition dependent on the concentration (measurement of IC50 =concentration of inhibitor necessary to reduce the enzymatic activity by 50%). Human placentas were used which were washed one hour at most after birth, perfused with physiological serum (5 liters) via the umbilical vein and then deep-frozen at -40° C.
(1) Obtaining the placental microsomes
The placentas were thawed at 4° C. and then homogenized (1:3) in a phosphate buffer 10 mM, pH=7.0; containing 100 millimoles of potassium chloride (KCl), 10 millimoles of dithiothreitol (DTT), 10 millimoles of ethylenediaminetetraacetic acid (EDTA), 40 millimoles of nicotinamide and 250 millimoles of sucrose. […]
The supernatant was then subjected to an ultracentrifugation stage (90 minutes, 105,000 g) to obtain the microsomal regulus. […] The protein concentration of the microsomal suspension was determined by the BRADFORD method BRADFORD M., Anal. Biochem., Vol. 72, (1976), p. […]
After centrifugation, 100 microliters of supernatant were taken from each tube and counted in the presence of a scintillating liquid. […] The inhibition obtained for each concentration of each inhibitor product of the invention was calculated as a percentage of the controls (arbitrary 100% , obtained in absence of any inhibitor). […]

`CSCC[C@]12CCC(=O)C=C1[C@H](O)C[C@H]1[C@@H]3CCC(=O)[C@@]3(C)C[C@H]3O[C@]312` [Example 2, 9α, 11α-epoxy-10β-[2-methylthio-ethyl]-Δ^4-estrene-6β-ol-3,17-dione] was tested, and the IC50 was 180 nM.
